Experimental data from PubChem BioAssay (NCI).
Where “and” joins values, the source holds several entries; their conditions need not be identical. Identical values can stand only once.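 1) Cells in 96-well plates. 2) Compound, 48 h, 5 concentrations. 3) Linear interpolation between surrounding doses. 4) Unreached endpoint = highest concentration. Abbreviation: GI50, concentration required for 50% inhibition of growth. TGI denotes the concentration required for complete inhibition of growth.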

How the values were obtained:
Assay in all cases: NCI-60 cell line screen, 48 h
UO-31 renal = tested on: UO-31 renal
SNB-75 CNS = tested on: SNB-75 CNS
SN12C renal = tested on: SN12C renal
HCC-2998 colon = tested on: HCC-2998 colon
UACC-257 melanoma = tested on: UACC-257 melanoma
IGROV1 ovarian = tested on: IGROV1 ovarian
LOX IMVI melanoma = tested on: LOX IMVI melanoma
SK-MEL-5 melanoma = tested on: SK-MEL-5 melanoma
TK-10 renal = tested on: TK-10 renal
MDA-MB-231 breast = tested on: MDA-MB-231 breast

| Structure (SMILES) | GI50 (UO-31 renal) | TGI (UO-31 renal) | GI50 (SNB-75 CNS) | TGI (SNB-75 CNS) | GI50 (SN12C renal) | TGI (SN12C renal) | GI50 (HCC-2998 colon) | TGI (HCC-2998 colon) | GI50 (UACC-257 melanoma) | TGI (UACC-257 melanoma) | GI50 (IGROV1 ovarian) | TGI (IGROV1 ovarian) | GI50 (LOX IMVI melanoma) | TGI (LOX IMVI melanoma) | GI50 (SK-MEL-5 melanoma) | TGI (SK-MEL-5 melanoma) | GI50 (TK-10 renal) | TGI (TK-10 renal) | GI50 (MDA-MB-231 breast) | TGI (MDA-MB-231 breast) |
| --- | --- | --- | --- | --- | --- | --- | --- | --- | --- | --- | --- | --- | --- | --- | --- | --- | --- | --- | --- | --- |
| Nc1ncnc2sc(=S)c3c(c12)CCC3 | 43.8 µM | > 100 µM | 88.7 µM | > 100 µM | 32.8 µM | > 100 µM | 35 µM | > 100 µM | > 100 µM | > 100 µM | 50.5 µM | > 100 µM | 31.8 µM | > 100 µM | 4.81 µM | 29.8 µM | 39.6 µM | > 100 µM | 30.4 µM | > 100 µM |
| O=c1cc(CNc2cc(F)cc(F)c2)c2ccc(I)cc2[nH]1 | 4.27 µM | > 100 µM | 0.199 µM | 3.45 µM | 0.798 µM | > 100 µM | > 64.9 µM | > 100 µM | > 100 µM | > 100 µM | 2.56 µM | > 100 µM | 0.679 µM | > 100 µM | 0.641 µM | > 100 µM | > 100 µM | > 100 µM | 77.8 µM | > 100 µM |
| O=C(Nc1cccc(Cl)c1)Nc1ncc(CCNc2ncnc3ccsc23)s1 | 6.01 µM and 3.22 µM | 28.7 µM and > 10 µM | 1.62 µM and 1.02 µM | 19.5 µM and > 10 µM | 3.91 µM and 3.82 µM | 18.6 µM and > 10 µM | 9.38 µM and > 10 µM | 25.6 µM and > 10 µM | 2.12 µM and 1.22 µM | 11.4 µM and 9.27 µM | 7.43 µM and 3.6 µM | 44.1 µM and > 10 µM | 1.38 µM and 1.2 µM | > 43.9 µM | 1.39 µM and 1.59 µM | 2.83 µM and 4.16 µM | 3.46 µM and 4.18 µM | 16.1 µM and > 10 µM | 3.38 µM and 2.67 µM | 17.4 µM and > 10 µM |
| COc1cc2c(cc1OC)-c1ccc3cc4c(cc3c1N(CCN1CCCC1)C2)OCO4 | 1.51 µM | 4.09 µM | 0.357 µM | 5.81 µM | 0.345 µM | 1.43 µM | 1.09 µM | 2.43 µM | 9.81 µM | 22.2 µM | 0.517 µM | 2.37 µM | 0.309 µM | 1.39 µM | 1.48 µM | 3.09 µM | 3.46 µM | 12.5 µM | 1.27 µM | 3.3 µM |
| CC(C)(O)c1ccc(N2CCN(c3nnc(Cc4ccccc4)c4ccccc34)CC2)nc1 | 3.49 µM | 19.5 µM | 9.74 µM | 24.5 µM | 7.32 µM | 33 µM | 14 µM | 27.8 µM | 8.59 µM | 21.7 µM | 12.1 µM | 28.4 µM | 14 µM | 35.5 µM | 2.84 µM | 8.64 µM | 13.4 µM | 38.1 µM | 5.95 µM | 32.2 µM |
| CCc1ccc(NCc2cc(OC)c(OC)c(OC)c2)cc1 | 1.37 µM and 3.95 µM | 55.8 µM and 62.6 µM | 0.387 µM and 0.882 µM | > 100 µM | 0.578 µM and 1.16 µM | 38.4 µM and > 68.7 µM | – | 11 µM and 12.1 µM | – | > 100 µM | 1.32 µM and 0.615 µM | > 66.2 µM | 0.543 µM and 0.149 µM | 25.7 µM and 43.8 µM | 0.297 µM and 0.104 µM | 7.84 µM and 14.7 µM | 24.6 µM and 10.7 µM | > 100 µM | 1.27 µM | > 100 µM |
| NC(=O)[C@H]1CCN(c2ncnc(N)c2F)C[C@@H]1N1CCC[C@@H](Nc2cc(Cl)cc(C(F)(F)F)c2)C1=O | 9.16 µM | > 100 µM | 12.6 µM | 39.1 µM | 10.9 µM | > 100 µM | 14.6 µM | 36.3 µM | 20.3 µM | 59.7 µM | 5.12 µM | > 100 µM | 11.2 µM | 27.1 µM | 16.3 µM | 30 µM | 13.5 µM | 39 µM | 14.3 µM | 32.6 µM |
| Fc1ccc2[nH]cc(Cc3c[nH]c4ccc(F)cc34)c2c1 | 13.7 µM | 33.7 µM | 29 µM | 85.6 µM | 21.6 µM | 51.4 µM | 13.3 µM | 30.3 µM | 15.7 µM | 30.8 µM | 16.9 µM | 41.6 µM | 16 µM | 47.1 µM | 17.5 µM | 35.3 µM | 28.9 µM | 68.6 µM | 16.7 µM | 46.5 µM |
| N#CSc1ncnc2nc[nH]c12 | 10.4 µM | > 100 µM | 7.19 µM | > 100 µM | 51.7 µM | > 100 µM | 3.9 µM | > 100 µM | 26.2 µM | > 100 µM | 35.1 µM | > 100 µM | 1.09 µM | > 91.6 µM | 15.2 µM | > 100 µM | 4.17 µM | > 100 µM | 11.2 µM | > 100 µM |
| CCN=C1C=CC(=C(c2ccc(N(C)C)cc2)c2ccc(N(C)C)cc2)c2ccccc21 | 0.196 µM | 0.663 µM | 0.0833 µM | 0.332 µM | 0.035 µM | 1.37 µM | 0.137 µM | 0.696 µM | 0.0234 µM | 0.0592 µM | 0.0701 µM | 0.711 µM | 0.0528 µM | 1.01 µM | 0.0609 µM | 0.213 µM | 0.0913 µM | 1.31 µM | 0.171 µM | 1.3 µM |
| Cc1cc(N2CCCCC2)nc(N(CCNc2ccnc3cc(Cl)ccc23)Cc2ccco2)n1 | 1.41 µM | 2.77 µM | 1.88 µM | 4.33 µM | 1.83 µM | 3.56 µM | 2.14 µM | 4.48 µM | 2.35 µM | 5.79 µM | 1.28 µM | 3.65 µM | 1.66 µM | 3.09 µM | 1.68 µM | 3.07 µM | 1.94 µM | 4.08 µM | 1.83 µM | 3.53 µM |
| CCn1c(-c2nonc2N)nc2cncc(C(=O)N3CCNCC3)c21 | > 25 µM | > 25 µM | > 25 µM | > 25 µM | > 25 µM | > 25 µM | > 25 µM | > 25 µM | > 25 µM | > 25 µM | > 25 µM | > 25 µM | > 25 µM | > 25 µM | > 25 µM | > 25 µM | > 25 µM | > 25 µM | > 25 µM | > 25 µM |
